Assay: xn = mol fraction of the nth substance listed

N + CO
viscosity [mPa·s], 100 kPa
Conditions	303 K	313 K
x1 = 0.16	0.48	0.4
x1 = 0.23	0.48	0.39

CCCCCCCCCCCCN + C1CCCCC1
303.15 K, 101 kPa
Conditions	viscosity [mPa·s]
x2 = 0.2093	2.31
x2 = 0.3927	1.948
x2 = 0.5029	1.709
x2 = 0.6032	1.492
x2 = 0.8037	1.116

N#C[S-].NC(N)=[NH2+] + CC(N)=O
viscosity [mPa·s], 100 kPa
Conditions	293.15 K	298.13 K	303.15 K	308.15 K	313.15 K	318.15 K	323.15 K
x1 = 0.2	–	–	16.53	13.36	10.98	9.17	7.72
x1 = 0.25	25.56	21.49	17.47	14.41	12.05	10.31	8.95
x1 = 0.3333	25.06	21.05	17.16	14.05	11.66	9.89	8.48

CC(=O)NCC(=O)O + O
viscosity [mPa·s], 101 kPa
Conditions	305.15 K	310.15 K	315.15 K
x1 = 3.6e-05	0.7912	0.7079	0.6523
x1 = 7.24e-05	0.7987	0.7201	0.6594
x1 = 0.000108	0.8032	0.7298	0.6613
x1 = 0.000144	0.8098	0.7307	0.6623
x1 = 0.0001823	0.8102	0.7321	0.6627
x1 = 0.000344	0.8162	0.7345	0.6658
x1 = 0.0007167	0.8254	0.7372	0.6685
x1 = 0.001025	0.8325	0.7401	0.6724
x1 = 0.001416	0.8398	0.7443	0.6751
x1 = 0.001792	0.8466	0.7473	0.6785
x1 = 0.002155	0.8523	0.7499	0.6822
x1 = 0.002607	0.8583	0.7554	0.6887
x1 = 0.003011	0.8641	0.7603	0.6933
x1 = 0.003546	0.8721	0.7654	0.6996

O=Cc1ccco1 + CCCC[P+](C)(CCCC)CCCC.COS(=O)(=O)[O-]
viscosity [mPa·s], 100 kPa
Conditions	293.15 K	298.15 K	303.15 K	308.15 K	313.15 K	318.15 K	323.15 K
x2 = 0.062	2.53	–	–	–	–	–	–
x2 = 0.1	8.96	3.49	3.13	2.99	2.64	2.46	–
x2 = 0.142	–	–	4.13	3.99	3.64	3.46	–
x2 = 0.191	41.29	–	–	5.55	5.56	4.32	4.01
x2 = 0.249	64.53	30.58	–	–	–	–	–
x2 = 0.317	–	46.54	24.83	–	8.79	–	6.01
x2 = 0.399	–	72.22	39.81	–	–	9.92	–
x2 = 0.499	–	–	–	33.52	–	–	–
x2 = 0.624	270.6	–	–	58.28	–	32.22	26.66
x2 = 0.732	396.3	265.6	–	133.5	–	81.46	73.46
x2 = 0.823	501.6	350.8	255.5	–	–	116.5	99.45
x2 = 0.863	555	392.6	287.1	–	–	–	–
x2 = 0.91	614.7	435.6	319.2	–	–	–	–
x2 = 0.951	664.4	475.8	351.2	265.8	–	158.5	–

CCCCCCn1cc[n+](C)c1.F[P-](F)(F)(F)(F)F + CCCCCCn1cc[n+](C)c1.[Cl-]
viscosity [mPa·s], 101 kPa
Conditions	303.15 K	308.15 K	313.15 K	318.15 K	323.15 K
x2 = 0.2	962.7	679	486.2	357.7	–
x2 = 0.4	–	–	854.7	598.9	433.5
x2 = 0.6	–	–	–	–	705.5

Source: the CheMixHub viscosity set
